How the values were obtained:
Format in all cases: cell-based, human
[1] = system: PARP; assay: Western blot, PARP expression; details: SH-SY5Y cells
Method: (§1) The incubator was maintained at a temperature of 37° C., and a mixed gas of 95% air and 5% CO2 was continuously supplied thereto to provide suitable conditions for cell culture. The cells were cultured in a 6-well plate or a 96-well plate at each of densities of 1×10^6 and 2×10^4 cells/well 24 hours before the experiment. […] Sulfuretin was used in ethanol and used at a final concentration of 0.1% or less.
In order to identify the effect of sulfuretin on the expression of proteins related to dementia, Alzheimer's disease, Parkinson's disease and strokes, a Western blot test was carried out.
After 24 hours, the supernatant of each well was collected and centrifuged at 400 g for 3 minutes, and the cells were washed with cold PBS and lysed with 100 μl of T-PER lysis buffer (Thermo, USA) for 30 minutes. The lysates were centrifuged at 10000 g at 4° C. for 15 minutes, and the supernatants were stored at […] until use as test samples. Proteins were quantitatively analyzed using a BCA assay kit (Thermo, USA) and separated within 8.5-12% SDS gel and then transferred to PVDF membranes. To examine the expression of the proteins, the development of fluorescence was analyzed by enhanced chemiluminescence (ECL). Specifically, the membrane was blocked with 5% skimmed non-fat milk for 1 hour and labeled with the primary antibodies, PARP, caspase-3, phospho-p38, phospho-JNK and β-actin at 4° C. overnight. Then, the membrane was washed three times with Tris-tween buffered saline (TTBS), and then labeled with horseradish peroxidase (HRP)-conjugated anti-rabbit and anti-mouse secondary antibodies at room temperature for 1 hour. Then, the membrane was washed five times with TTBS for 10 minutes. The washed film was developed by ECL using x-ray films, and concentrations were quantitatively analyzed using quantitative analysis program (Fujifilm, Japan).

[2] = system: SH-SY5Y cells; assay: LDH secretion (cytotoxicity) test
Method: as §1
To measure LDH secretion (cytotoxicity), an LDH cytotoxicity assay kit was used. 50 μl of the medium was taken from each well of the 96-well plate (in which the cells have been cultured) and dispensed into each well of a fresh 96-well plate, and 50 μl of a reaction reagent was added to each well, after which the plate was shielded from light. The plate was incubated in an incubator for 30 minutes, and the UV absorbance at 490 nm was measured using a microplate reader (Molecular device, USA).
The measured absorbance was substituted into the following equation to calculate LDH secretion:
LDH secretion (%)=(LDH secretion O.D. in medium/total LDH secretion O.D.)×100

[3] = system: BACE1; assay: Western blot, BACE1 level; details: Swedish APP mutant SH-SY5Y cells; sulfuretin 2.5, 5, 10 and 20 μM for 24 h; dose-dependent (p<0.001)
Method: For the experiments shown in FIGS. 11 to 13, SH-SY5Y and stable swedish APP mutant SH-SY5Y cells were grown in DMEM supplemented with 10% heat-inactivated FBS and 0.1% penicillin/streptomycin at 37° C. in a humidified atmosphere of 5% CO2 and 95% air. Cells were fed every three days and sub-cultured once they reached 80-90% confluency in […] cell culture dishes. Amyloid beta25-35 was prepared as a 20 mM stock immediately before use and diluted in PBS to the indicated final concentration. Prior to use, amyloid beta25-35 was dissolved in sterilized distilled water and was aggregated at 37° C. for five days. The test compounds were dissolved in DMSO and the stock solutions were added directly to the culture media to a final concentration of 0.1% (v/v) DMSO.
SH-SY5Y and stable swedish APP mutant SH-SY5Y cells (1×10^6 cells/well in 6-well plates) were incubated at 37° C. with or without 20 μM amyloid beta 25-35 for 6 or 24 h, with or without sulfuretin pretreatment, and then washed and harvested with ice-cold PBS and centrifuged at 400×g for 3 minutes. […] The protein concentration was determined using a protein assay kit (Thermo Scientific). […] Protein bands were quantified by densitometric analysis using Image Gauge 4.0 software (Fujifilm, Stamford, Conn., USA). […]

SMILES: O=C1/C(=C/c2ccc(O)c(O)c2)Oc2cc(O)ccc21 [sulfuretin]
- PARP expression ([1]; hydrogen peroxide + sulfuretin 0.1 μg/ml): ≥ 70%
- PARP expression ([1]; hydrogen peroxide + sulfuretin 0.5 μg/ml): ≥ 92%
- PARP expression ([1]; hydrogen peroxide + sulfuretin 1 μg/ml): ≥ 99%
- LDH secretion ([2]; beta-amyloid-induced, sulfuretin 0.1 μg/ml): ≤ 12%
- LDH secretion ([2]; beta-amyloid-induced, sulfuretin 0.5 μg/ml): ≤ 11%
- LDH secretion ([2]; beta-amyloid-induced, sulfuretin 1 μg/ml): ≤ 11%
- LDH secretion ([2]; beta-amyloid-induced, sulfuretin 5 μg/ml): ≤ 9%
- LDH secretion ([2]; hydrogen peroxide-induced, sulfuretin 0.1 μg/ml): ≤ 77%
- LDH secretion ([2]; hydrogen peroxide-induced, sulfuretin 0.5 μg/ml): ≤ 56%
- LDH secretion ([2]; hydrogen peroxide-induced, sulfuretin 1 μg/ml): ≤ 33%
- LDH secretion ([2]; hydrogen peroxide-induced, sulfuretin 5 μg/ml): ≤ 39%
- BACE1 level [3]: significantly inhibited

Source: patent US20150031760A1, “PHARMACEUTICAL COMPOSITION FOR PREVENTING OR TREATING NERVOUS SYSTEM DISORDERS COMPRISING SULFURETIN OR PHARMACEUTICALLY ACCEPTABLE SALT THEREOF” (Research and Business Foundation SUNGKYUNKWAN UNIVERSITY, priority 2010, published 2015)
